For orientation: pIC50 means the IC50 on a negative log10 scale, so that one unit is a factor of ten. Usually pEC50 stands for −log10 of the EC50, conventionally taken in molar units. Low readings indicate a high EC50, high ones a low EC50.

The text below walks through data of patent US20120010205A1, “NOVEL QUINOLINE ESTERS USEFUL FOR TREATING SKIN DISORDERS” (Wyeth LLC, priority 2010, published 2012).

One assay deals with T1, human LXRβ (Homo sapiens, UniProt P55055).
T1 construct: made in house; host or cells: E. coli
T1 sequence (P55055 1-460): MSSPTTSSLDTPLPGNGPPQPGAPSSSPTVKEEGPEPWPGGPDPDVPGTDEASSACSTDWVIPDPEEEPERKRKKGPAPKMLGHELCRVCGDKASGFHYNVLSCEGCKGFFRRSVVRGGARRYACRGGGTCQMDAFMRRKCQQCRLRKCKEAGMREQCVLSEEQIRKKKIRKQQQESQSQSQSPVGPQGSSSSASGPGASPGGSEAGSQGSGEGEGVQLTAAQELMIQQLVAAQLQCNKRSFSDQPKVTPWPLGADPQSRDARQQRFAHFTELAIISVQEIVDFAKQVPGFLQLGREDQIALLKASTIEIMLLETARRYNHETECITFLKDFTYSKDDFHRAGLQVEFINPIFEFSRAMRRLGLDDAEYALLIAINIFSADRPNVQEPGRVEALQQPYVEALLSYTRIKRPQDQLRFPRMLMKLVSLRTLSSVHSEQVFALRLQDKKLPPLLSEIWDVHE
In words: Ligand-binding test procedure for human LXRβ (3H T0901317 tracer, flash plates). As to conditions: read-out: hLXRb binding IC50. The procedure:
LIGAND-BINDING TEST PROCEDURE FOR HUMAN LXRβ.
Buffer: 100 mM KCl, 100 mM TRIS (pH 7.4 at +4° C.), 8.6% glycerol, 0.1 mM PMSF*, 2 mM MTG*, 0.2% CHAPS (* not used in wash buffer)
Receptor source: E. coli extracted from cells expressing biotinylated hLXRβ. Extract was made in a similar buffer as above, but with 50 mM TRIS.
Washed streptavidin and coated flash plates with wash buffer. Diluted receptor extract to give Bmax˜4000 cpm and add to the wells. Wrapped the plates in aluminum foil and stored them at +4° C. overnight.
Made a dilution series in DMSO of the test ligands. Made a 5 nM solution of the radioactive tracer in buffer. Mixed 250 μL diluted tracer with 5 μL of the test ligand from each concentration of the dilution series. Washed the receptor-coated flash plates. Added 200 μL per well of the ligand/radiolabel mixture to the receptor-coated flash plates. Wrapped the plates in aluminum foil and incubate at +4° C. over night.
Aspirated wells, and washed the flashed plates. Sealed the plate. Measured the remaining radioactivity in the plate.

A further assay has as its target T2, hLXRa (Homo sapiens, UniProt Q13133).
T2 sequence (Q13133 1-447): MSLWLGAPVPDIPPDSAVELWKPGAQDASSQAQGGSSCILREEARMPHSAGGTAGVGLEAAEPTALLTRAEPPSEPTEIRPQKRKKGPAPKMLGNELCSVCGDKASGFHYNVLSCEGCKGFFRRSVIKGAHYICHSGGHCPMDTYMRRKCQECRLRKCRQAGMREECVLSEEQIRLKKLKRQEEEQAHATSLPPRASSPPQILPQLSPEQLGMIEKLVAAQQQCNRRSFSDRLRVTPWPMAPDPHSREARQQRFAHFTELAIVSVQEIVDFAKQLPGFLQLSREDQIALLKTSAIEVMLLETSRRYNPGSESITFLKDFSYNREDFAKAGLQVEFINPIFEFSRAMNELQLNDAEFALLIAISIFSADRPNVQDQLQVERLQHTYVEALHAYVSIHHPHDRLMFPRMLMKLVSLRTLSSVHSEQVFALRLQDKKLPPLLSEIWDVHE
Nature of the assay: hLXRa binding.

Assay [1] concerns ABCG1. In words: Gene regulation by LXR: ABCG1, human foreskin fibroblasts (serum-free). As to conditions: Fibroblast. Format: cell-based.
Assay [2] concerns ABCG1. Nature of the assay: Gene regulation by LXR: ABCG1, KERTr (serum-free). It is filed as cell-based.

pEC50, pIC50: −log10 of the molar value. A value given as a limit tells only on which side of the number the result lay.

Take `CCS(=O)(=O)c1cccc(C(=O)Oc2cccc(-c3c(C(C)C)cnc4c(Cl)cccc34)c2)c1` [Example 1, 3-(8-chloro-3-isopromilquinolin-4-yl)phenyl 3-(ethylsulfonyl)benzoate]: the pIC50 on human LXRβ was 8.43; on hLXRa, 7.79. Besides, the pEC50 was 7.23 in the assay with ABCG1 [1] and 9.12 in the assay with ABCG1 [2].
Turning to `Cc1ccc(S(C)(=O)=O)cc1C(=O)Oc1cccc(-c2c(C(C)C)cnc3c(Cl)cccc23)c1` [Example 2, 3-(8-chloro-3-isopropyiquinolin-4-yl)phenyl 2-methyl-5-(methylsulfonyl)benzoate], the pIC50 is 8.43 at human LXRβ and 7.93 on hLXRa. Further, the pEC50 in the assay on ABCG1 [1] was 7.48; in the assay on ABCG1 [2] it was 8.84.
On to `CC(C)c1cnc2c(Cl)cccc2c1-c1cccc(OC(=O)c2ccc(S(C)(=O)=O)cc2)c1` [Example 3, 3-(8-chloro-3-isopropylquinolin-4-yl)phenyl 4-(methylsulfonyl)benzoate], for which the results for the pIC50 at human LXRβ and at hLXRa were 7.77 and 7.24, respectively. The values for the pEC50 in the assay on ABCG1 [1] and in the assay with ABCG1 [2] were 7.35 and 8.93, respectively.
For `CC(C)c1cnc2c(Cl)cccc2c1-c1cccc(OC(=O)c2ccccc2S(C)(=O)=O)c1` [Example 4, 3-(8-chloro-3-isopropylquinolin-4-yl)phenyl 2-(methylsulfonyl)benzoate], the pIC50 at human LXRβ and on hLXRa was under 6.00 each time.
`Cc1ccc(S(=O)(=O)N(C)C)cc1C(=O)Oc1cccc(-c2c(C(C)C)cnc3c(Cl)cccc23)c1` [Example 5]: the pIC50 on human LXRβ was 7.60; at hLXRa, 7.28. For the same compound, the pEC50 with ABCG1 [1] was 7.30; in the assay with ABCG1 [2] it was 8.79.
Regarding `CCS(=O)(=O)c1cccc(C(=O)Oc2cccc(-c3c(C(C)C)cnc4c(C(F)(F)F)cccc34)c2)c1` [Example 6, 3-[3-isopropyl-8-(trifluoromethyl)quinolin-4-yl]phenyl-3-(ethylsulfonyl)benzoate], the pIC50 at human LXRβ is 8.40; on hLXRa, 7.79. For the same compound, the pEC50 in the assay with ABCG1 [1] was 7.43; with ABCG1 [2], 8.83.
In the same order, the values of `Cc1ccc(S(C)(=O)=O)cc1C(=O)Oc1cccc(-c2c(C(C)C)cnc3c(C(F)(F)F)cccc23)c1` [Example 7, 3-[3-isopropyl-8-(trifluoromethyl)quinolin-4-yl]phenyl-2-methyl-5-(methylsulfonyl)benzoate] are 8.52, 8.04, 7.64 and 8.48.
Consider `CC(C)c1cnc2c(C(F)(F)F)cccc2c1-c1cccc(OC(=O)c2ccc(S(C)(=O)=O)cc2)c1` [Example 8, 3-[3-isopropyl-8-(trifluoromethyl)quinolin-4-yl]phenyl 4-(methylsulfonyl)benzoate], for which the pIC50 is 7.90 on human LXRβ and 7.27 on hLXRa. For the same compound, the pEC50 was 7.42 in the assay on ABCG1 [1] and 8.72 in the assay on ABCG1 [2].
For `CC(C)c1cnc2c(C(F)(F)F)cccc2c1-c1cccc(OC(=O)c2ccccc2S(C)(=O)=O)c1` [Example 9, 3-[3-isopropyl-8-(trifluoromethyl)quinolin-4-yl]phenyl 2-(methylsulfonyl)benzoate], the values for the pIC50 at human LXRβ and at hLXRa were 6.95 and 6.59, respectively.
`Cc1ccc(S(=O)(=O)N(C)C)cc1C(=O)Oc1cccc(-c2c(C(C)C)cnc3c(C(F)(F)F)cccc23)c1` [Example 10]: the figures for the pIC50 at human LXRβ and at hLXRa were 7.62 and 7.19, respectively. Further, the results for the pEC50 in the assay with ABCG1 [1] and in the assay on ABCG1 [2] were 7.24 and 9.28, respectively.
Take `Cc1cnc2c(C(F)(F)F)cccc2c1-c1cccc(OC(=O)c2cccc(S(C)(=O)=O)c2)c1` [Example 11]: the pIC50 at human LXRβ was 8.46; at hLXRa, 7.88. Moreover, the figures for the pEC50 in the assay on ABCG1 [1] and with ABCG1 [2] were 6.98 and 7.14, respectively.
As to `Cc1cnc2c(C(F)(F)F)cccc2c1-c1cccc(C(=O)Oc2cccc(S(C)(=O)=O)c2)c1` [Example 12], the pIC50 at human LXRβ is 6.81; at hLXRa it was 6.26.
Regarding `CC(C)c1cnc2c(Cl)cccc2c1-c1cccc(OC(=O)c2cc(S(C)(=O)=O)ccc2Cl)c1` [Example 13, 3-(8-chloro-3-isopropylquinolin-4-yl)phenyl 2-chloro-5-(methylsulfonyl)benzoate], the pIC50 at human LXRβ is 8.47; at hLXRa it was 8.05.
For `CC(C)c1cnc2c(C(F)(F)F)cccc2c1-c1cccc(OC(=O)c2cc(S(C)(=O)=O)ccc2Cl)c1` [Example 14, 3-[3-isopropyl-8-(trifluoromethyl)quinolin-4-yl]phenyl-2-chloro-5-(methylsulfonyl)benzoate] the same measures were 8.39 and 7.77.
Turning to `CC(C)c1cnc2c(C(F)(F)F)cccc2c1-c1cccc(OC(=O)c2cccc(S(C)(=O)=O)c2)c1` [Example 15, 3-[3-isopropyl-8-(trifluoromethyl)quinolin-4-yl]phenyl 3-(methylsulfonyl)benzoate], the pIC50 at human LXRβ is 8.77; on hLXRa, 8.46. Besides, the pEC50 was 7.39 in the assay with ABCG1 [1] and 8.28 with ABCG1 [2].
Consider `CC(C)c1cnc2c(Cl)cccc2c1-c1cccc(OC(=O)c2cccc(S(C)(=O)=O)c2)c1` [Example 16, 3-[8-chloro-3-(1-methylethyl)quinolin-4-yl]phenyl 3-(methylsulfonyl)benzoate], for which the results for the pIC50 on human LXRβ and on hLXRa were 8.66 and 8.36, respectively.
With `Cc1cnc2c(Cl)cccc2c1-c1cccc(OC(=O)c2cccc(S(C)(=O)=O)c2)c1` [Example 17, 3-(8-chloro-3-methylquinolin-4-yl)phenyl 3-(methylsulfonyl) benzoate], the pIC50 at human LXRβ was 8.43; on hLXRa, 7.77.
For `CS(=O)(=O)c1cccc(C(=O)Oc2ccc(Cl)c(-c3ccnc4c(C(F)(F)F)cccc34)c2)c1` [Example 18, 4-chloro-3-[8-(trifluoromethyl)quinolin-4-yl]phenyl-3-(methylsulfonyl)benzoate], the results for the pIC50 at human LXRβ and on hLXRa were 7.86 and 6.91, respectively.
On to `CCc1cnc2c(C(F)(F)F)cccc2c1-c1cccc(OC(=O)c2cccc(S(C)(=O)=O)c2)c1` [Example 19, 3-[3-ethyl-8-(trifluoromethyl)quinolin-4-yl]phenyl 3-(methylsulfonyl)benzoate], for which the pIC50 on human LXRβ was 8.66; at hLXRa it was 8.40. The pEC50 in the assay on ABCG1 [1] was 7.44; in the assay on ABCG1 [2] it was 7.90.
In the same order, the values of `CCCc1cnc2c(C(F)(F)F)cccc2c1-c1cccc(OC(=O)c2cccc(S(C)(=O)=O)c2)c1` [Example 20, 3-[3-propyl-8-(trifluoromethyl)quinolin-4-yl]phenyl 3-(methylsulfonyl)benzoate] are 8.70, 8.54, 7.96 and 8.35.
As to `CS(=O)(=O)c1cccc(C(=O)Oc2cccc(-c3ccnc4c(C(F)(F)F)cccc34)c2)c1` [Example 21, 3-[8-(trifluoromethyl)quinolin-4-yl]phenyl 3-(methylsulfonyl)benzoate], the pIC50 is 7.70 on human LXRβ and 6.92 on hLXRa. Moreover, the pEC50 in the assay with ABCG1 [1] is 6.20; in the assay with ABCG1 [2], 6.42.
As to `CS(=O)(=O)c1cccc(C(=O)Oc2cccc(-c3c(-c4ccccc4)cnc4c(C(F)(F)F)cccc34)c2)c1` [Example 22, 3-[3-phenyl-8-(trifluoromethyl)quinolin-4-yl]phenyl 3-(methylsulfonyl)benzoate], the pIC50 on human LXRβ was 8.64; on hLXRa, 8.41. The figures for the pEC50 with ABCG1 [1] and with ABCG1 [2] were 8.00 and 8.04, respectively.
Consider `CS(=O)(=O)c1cccc(C(=O)Oc2cccc(-c3c(C#N)cnc4c(C(F)(F)F)cccc34)c2)c1` [Example 24, 3-[3-cyano-8-(trifluoromethyl)quinolin-4-yl]phenyl 3-(methylsulfonyl)benzoate], for which the pIC50 on human LXRβ is 7.48; at hLXRa, 7.05.
